Several values for one entry are separate records, joined by “and”; a condition that tells them apart may be missing. Identical values can stand only once. Like-named read-outs stand apart in the source and are kept apart here.
Legend:
[1] = test system: LNCaP cells; assay: Cell cycle analysis by flow cytometry, LNCaP; assay type: cell-based, human
Procedure: (§1) Cells were exposed to SMIPs (40 μM) for 24 h and 48 h. Cells were trypsinized, washed with PBS and suspended in 600 μL PBS. Cells were fixed by adding 1.4 mL cold absolute ethanol and kept at -20°C for at least 12 h. After washing once with PBS, the cells were resuspended in 250 μL PBS containing 2.5 μg RNAse A and incubated for 45 min at room temperature. Staining was done by adding 40 μg/mL of propidium iodine followed by incubation for 15 min at room temperature. DNA-bound fluorescence was read at 564 to 606 nm using FACSort and FACSCanto flow cytometers (BD Biosciences) at the Flow Cytometry Facility of the Sanford-Burnham Medical Research Institute. Distribution of cells in the different cell cycle phase was determined with ModFit LT 3.2.1 or FlowJo 8.6 software. Aggregates were excluded from the analysis manually using pulse shape or identified by automated modelling in ModFit LT.

[2] = test system: LNCaP-WT cells; assay: MTT cytotoxicity assay, LNCaP-WT; settings: Homo sapiens, read-out: IC50 (MTT cytotoxicity)
Procedure: (§3) LNCaP-S14 (10,000 cells), PC3, DU145 or IMR90 cells (5000 cells) were seeded in 96-well plates and treated with increasing concentrations of the respective SMIPs for 72 h. Cell viability was assessed using the MTT cell proliferation assay (ATCC®, Middlesex, UK) according to the manufacturer's protocol. IC50 was calculated using the BioDataFit 1.02 software http://www.changbioscience.com/stat/ec50.html.

[3] = test system: p27 protein levels in LNCaP cells; assay: Immunoblot quantification of p27, LNCaP; assay type: cell-based, human
Procedure: (§2) Total cell lysate from cells treated with vehicle (DMSO) or compounds were obtained by incubating cells in lysis buffer (25 mM Tris-HCl pH 7.4, 150 mM NaCl, 0.5% Triton X-100, protease inhibitors) for 15 min at 4°C. The supernatant was collected by centrifugation and the amount of protein was determined with a Bio-Rad protein assay (Bio-Rad) using BSA as standard. Equal amounts of protein were subjected to SDS-PAGE (4%-20% gels, Invitrogen) and transferred to PVDF membranes. The membranes were blocked with TBST (50 mM Tris-HCl pH 7.5, 150 mM NaCl, 0.05% Tween-20) containing 5% non-fat dry milk or bovine serum albumin (BSA) for 1 h at room temperature, followed by incubation in primary antibodies 4°C overnight. Membranes were washed and incubated with secondary antibodies conjugated to HRP (Jackson ImmunoResearch Laboratories) for 1 h at room temperature. Signals were visualized using the ECL Western Blotting Substrate (Pierce Biotechnology, IL, USA) according to the manufacturer's instructions. Membranes were stripped using Restore™ Western Blot Stripping Buffer (Pierce Biotechnology). Films were scanned and quantification of the bands was performed using Image J software http://rsbweb.nih.gov/ij/.

[4] = test system: PC3 cells; assay: MTT cytotoxicity assay, PC3; settings: Homo sapiens, read-out: IC50 (MTT cytotoxicity)
Procedure: as §3

[5] = test system: p21 protein levels in DU145 cells; assay: Immunoblot quantification of p21, DU145; assay type: cell-based, human
Procedure: as §2

[6] = test system: p27 protein levels in IMR90 cells; assay: Immunoblot quantification of p27, IMR90; assay type: cell-based, human
Procedure: as §2

[7] = test system: IMR90 cells; assay: Cell cycle analysis by flow cytometry, IMR90; assay type: cell-based, human
Procedure: as §1

[8] = MTT cytotoxicity assay, IMR90; assay type: cell-based; settings: human, IMR90 normal fibroblasts
Procedure: as §3

[9] = test system: LNCaP-S14 cells; assay: MTT cytotoxicity assay, LNCaP-S14; settings: Homo sapiens, 72 h, read-out: IC50 (MTT cytotoxicity)
Procedure: as §3

CC(C)(C)c1cc2cc(NC(=O)c3cccs3)ccc2[nH]1 [SMIP001]
Cell cycle distribution G1 [1]: 84.5 and 83.6 | Cell cycle distribution G2 [1]: 7.6 and 6.6 | Cell cycle distribution S [1]: 6.6 and 8.5 | IC50 ([2]; 72 h): 47.1 µM | IC50 ([2]; 96 h): 32.7 µM | p27 protein level (immunoblot, DMSO = 1.0) [3]: 1.5 ± 0.7 | IC50 ([4]; PC-3, 72 h): ~80 µM | IC50 ([4]; PC-3, 96 h): 80 µM | p21 protein level (immunoblot, DMSO = 1.0) [5]: 1.1 ± 0.3 | p27 protein level (immunoblot, DMSO = 1.0) [6]: 1.0 ± 0.0 | Cell cycle distribution G1 [7]: 68.4 and 77.0 | Cell cycle distribution G2 [7]: 15.3 and 14.1 | Cell cycle distribution S [7]: 16.2 and 8.9 | IC50 at 72 h ([8]; IMR90, 0.01 - 40 μM): > 20 µM | IC50 at 72 h ([8]; IMR90, 0.01 - 80 μM): 40 to 80 µM | IC50 at 96 h ([8]; IMR90, 0.01 - 80 μM, 96 h): 40 to 80 µM | IC50 [9]: 4.63 µM

Reference: PMC3025922 (BMC Biology, 2010)
